Columns and labels:
Salmonella choleraesuis = test: Bacterial panel testing, MIC by broth microdilution; assay type: cell-based; conditions: 20-24 hours growth
Outline: (§1)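 Colonies grown 2-4 h at 37° C in Mueller-Hinton or Brain Heart infusion broth (strain-dependent), adjusted to McFarland standard, then diluted into media. Test compound diluted to 10 μg/ml in DMSO (stock) and twofold serially diluted across columns 2-12 in inoculated media. Incubated 20-24 h; clear wells scored for potency.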

Staphylococcus aureus = test: as above; assay type: cell-based; conditions: 20-24 hours growth
Outline: as §1

Bacillus atrophaeus = test: as above; assay type: cell-based; conditions: 20-24 hours growth
Outline: as §1

Eschericia coli = test: as above; assay type: cell-based; conditions: 20-24 hours growth
Outline: as §1

Pseudomonas aeruginosa = test: as above; assay type: cell-based; conditions: 20-24 hours growth
Outline: as §1

Enterococcus faecium = test: as above; assay type: cell-based; conditions: 20-24 hours growth
Outline: as §1

Lungs cancer cells A549 = test: Mammalian cytotoxicity

Structure (SMILES) | MIC SC (Salmonella choleraesuis) [µg/mL] | MIC SA (Staphylococcus aureus) [µg/mL] | MIC BA (Bacillus atrophaeus) [µg/mL] | MIC EC (Eschericia coli) [µg/mL] | MIC PA (Pseudomonas aeruginosa) [µg/mL] | MIC EF (Enterococcus faecium) [µg/mL] | Mammalian Cytotoxicity IC50 (Lungs cancer cells A549) [µg/mL]
OC[C@H]1O[C@@H]2O[C@H]3[C@H](O)[C@@H](O)[C@@H](O[C@H]4[C@H](O)[C@@H](O)[C@@H](O[C@H]5[C@H](O)[C@@H](O)[C@@H](O[C@H]6[C@H](O)[C@@H](O)[C@@H](O[C@H]7[C@H](O)[C@@H](O)[C@@H](O[C@H]8[C@H](O)[C@@H](O)[C@@H](O[C@H]1[C@H](O)[C@H]2O)O[C@@H]8CO)O[C@@H]7CO)O[C@@H]6CO)O[C@@H]5CO)O[C@@H]4CO)O[C@@H]3CO | >200 | >200 | >200 | >200 | >200 | >200 | 
O[C@@H]1[C@@H](O)[C@H]2O[C@H]3[C@H](O)[C@@H](O)[C@@H](O[C@H]4[C@H](O)[C@@H](O)[C@@H](O[C@H]5[C@H](O)[C@@H](O)[C@@H](O[C@H]6[C@H](O)[C@@H](O)[C@@H](O[C@H]7[C@H](O)[C@@H](O)[C@@H](O[C@H]8[C@H](O)[C@@H](O)[C@@H](O[C@@H]1[C@@H](CSCc1ccccc1)O2)O[C@@H]8CSCc1ccccc1)O[C@@H]7CSCc1ccccc1)O[C@@H]6CSCc1ccccc1)O[C@@H]5CSCc1ccccc1)O[C@@H]4CSCc1ccccc1)O[C@@H]3CSCc1ccccc1 | >200 | >200 | >200 | >200 | >200 | >200 | 
CC(=O)OC1C2OC(Cn3cc(Cc4ccccc4)nn3)C(OC3OC(Cn4cc(Cc5ccccc5)nn4)C(OC4OC(Cn5cc(Cc6ccccc6)nn5)C(OC5OC(Cn6cc(Cc7ccccc7)nn6)C(OC6OC(Cn7cc(Cc8ccccc8)nn7)C(OC7OC(Cn8cc(Cc9ccccc9)nn8)C(OC8OC(Cn9cc(Cc%10ccccc%10)nn9)C(O2)C(OC(C)=O)C8OC(C)=O)C(OC(C)=O)C7OC(C)=O)C(OC(C)=O)C6OC(C)=O)C(OC(C)=O)C5OC(C)=O)C(OC(C)=O)C4OC(C)=O)C(OC(C)=O)C3OC(C)=O)C1OC(C)=O (stereo not drawn) | >200 | >200 | >200 | >200 | >200 | >200 | 
OC1C2OC(Cn3cc(Cc4ccccc4)nn3)C(OC3OC(Cn4cc(Cc5ccccc5)nn4)C(OC4OC(Cn5cc(Cc6ccccc6)nn5)C(OC5OC(Cn6cc(Cc7ccccc7)nn6)C(OC6OC(Cn7cc(Cc8ccccc8)nn7)C(OC7OC(Cn8cc(Cc9ccccc9)nn8)C(OC8OC(Cn9cc(Cc%10ccccc%10)nn9)C(O2)C(O)C8O)C(O)C7O)C(O)C6O)C(O)C5O)C(O)C4O)C(O)C3O)C1O (stereo not drawn) | >200 | >200 | >200 | >200 | >200 | >200 | 
Cl.Cl.Cl.Cl.Cl.Cl.Cl.NC(CCC(=O)O)C(=O)NCC1OC2OC3C(CNC(=O)C(N)CCC(=O)O)OC(OC4C(CNC(=O)C(N)CCC(=O)O)OC(OC5C(CNC(=O)C(N)CCC(=O)O)OC(OC6C(CNC(=O)C(N)CCC(=O)O)OC(OC7C(CNC(=O)C(N)CCC(=O)O)OC(OC8C(CNC(=O)C(N)CCC(=O)O)OC(OC1C(O)C2O)C(O)C8O)C(O)C7O)C(O)C6O)C(O)C5O)C(O)C4O)C(O)C3O (stereo not drawn) | >200 | >200 | >200 | >200 | >200 | >200 | 
Cl.Cl.Cl.Cl.Cl.Cl.Cl.Cl.Cl.Cl.Cl.Cl.Cl.Cl.NC(Cc1cnc[nH]1)C(=O)NCC1OC2OC3C(CNC(=O)C(N)Cc4cnc[nH]4)OC(OC4C(CNC(=O)C(N)Cc5cnc[nH]5)OC(OC5C(CNC(=O)C(N)Cc6cnc[nH]6)OC(OC6C(CNC(=O)C(N)Cc7cnc[nH]7)OC(OC7C(CNC(=O)C(N)Cc8cnc[nH]8)OC(OC8C(CNC(=O)C(N)Cc9cnc[nH]9)OC(OC1C(O)C2O)C(O)C8O)C(O)C7O)C(O)C6O)C(O)C5O)C(O)C4O)C(O)C3O (stereo not drawn) | >200 | >200 | >200 | >200 | >200 | >200 | 
OC1C2OC(CNC(=S)Nc3ccccc3)C(OC3OC(CNC(=S)Nc4ccccc4)C(OC4OC(CNC(=S)Nc5ccccc5)C(OC5OC(CNC(=S)Nc6ccccc6)C(OC6OC(CNC(=S)Nc7ccccc7)C(OC7OC(CNC(=S)Nc8ccccc8)C(OC8OC(CNC(=S)Nc9ccccc9)C(O2)C(O)C8O)C(O)C7O)C(O)C6O)C(O)C5O)C(O)C4O)C(O)C3O)C1O (stereo not drawn) | >200 | >200 | >200 | >200 | >200 | >200 | 
OC1C2OC(CNC(=S)NCc3ccccc3)C(OC3OC(CNC(=S)NCc4ccccc4)C(OC4OC(CNC(=S)NCc5ccccc5)C(OC5OC(CNC(=S)NCc6ccccc6)C(OC6OC(CNC(=S)NCc7ccccc7)C(OC7OC(CNC(=S)NCc8ccccc8)C(OC8OC(CNC(=S)NCc9ccccc9)C(O2)C(O)C8O)C(O)C7O)C(O)C6O)C(O)C5O)C(O)C4O)C(O)C3O)C1O (stereo not drawn) | >200 | >200 | >200 | >200 | >200 | >200 | 
O[C@@H]1[C@@H](O)[C@H]2O[C@H]3[C@H](O)[C@@H](O)[C@@H](O[C@H]4[C@H](O)[C@@H](O)[C@@H](O[C@H]5[C@H](O)[C@@H](O)[C@@H](O[C@H]6[C@H](O)[C@@H](O)[C@@H](O[C@H]7[C@H](O)[C@@H](O)[C@@H](O[C@H]8[C@H](O)[C@@H](O)[C@@H](O[C@@H]1[C@@H](CNCCc1ccccc1)O2)O[C@@H]8CNCCc1ccccc1)O[C@@H]7CNCCc1ccccc1)O[C@@H]6CNCCc1ccccc1)O[C@@H]5CNCCc1ccccc1)O[C@@H]4CNCCc1ccccc1)O[C@@H]3CNCCc1ccccc1 |  |  |  |  | >200 |  | 43
O[C@@H]1[C@@H](O)[C@H]2O[C@H]3[C@H](O)[C@@H](O)[C@@H](O[C@H]4[C@H](O)[C@@H](O)[C@@H](O[C@H]5[C@H](O)[C@@H](O)[C@@H](O[C@H]6[C@H](O)[C@@H](O)[C@@H](O[C@H]7[C@H](O)[C@@H](O)[C@@H](O[C@H]8[C@H](O)[C@@H](O)[C@@H](O[C@@H]1[C@@H](CNC1CCN(Cc9ccccc9)CC1)O2)O[C@@H]8CNC1CCN(Cc2ccccc2)CC1)O[C@@H]7CNC1CCN(Cc2ccccc2)CC1)O[C@@H]6CNC1CCN(Cc2ccccc2)CC1)O[C@@H]5CNC1CCN(Cc2ccccc2)CC1)O[C@@H]4CNC1CCN(Cc2ccccc2)CC1)O[C@@H]3CNC1CCN(Cc2ccccc2)CC1 |  |  |  |  | >200 |  | 127
CCCCCCNC[C@H]1O[C@@H]2O[C@H]3[C@H](O)[C@@H](O)[C@@H](O[C@H]4[C@H](O)[C@@H](O)[C@@H](O[C@H]5[C@H](O)[C@@H](O)[C@@H](O[C@H]6[C@H](O)[C@@H](O)[C@@H](O[C@H]7[C@H](O)[C@@H](O)[C@@H](O[C@H]8[C@H](O)[C@@H](O)[C@@H](O[C@H]1[C@H](O)[C@H]2O)O[C@@H]8CNCCCCCC)O[C@@H]7CNCCCCCC)O[C@@H]6CNCCCCCC)O[C@@H]5CNCCCCCC)O[C@@H]4CNCCCCCC)O[C@@H]3CNCCCCCC |  |  |  |  | >200 |  | 129
